Assay results as given in ChEMBL document CHEMBL4725325, “Synthesis and biological evaluation of parthenolide derivatives with reduced toxicity as potential inhibitors of the NLRP3 inflammasome” (Bioorg Med Chem Lett, 2020).
The source made the active and inactive calls. The rule behind the calls is not given here.

Tests used:
[1] = biological target: NACHT, LRR and PYD domains-containing protein 3 (Mus musculus) (UniProt Q8R4B8); test: Inhibition of NLRP3 inflammasome in mouse J774.A1 cells assessed as reduction in LPS-induced IL-1beta release at 1 to 10 uM; type: cell-based; conditions: dose microM 1-10
NACHT, LRR and PYD domains-containing protein 3 (Mus musculus), sequence (Q8R4B8 whole entry, the tested form may be a part): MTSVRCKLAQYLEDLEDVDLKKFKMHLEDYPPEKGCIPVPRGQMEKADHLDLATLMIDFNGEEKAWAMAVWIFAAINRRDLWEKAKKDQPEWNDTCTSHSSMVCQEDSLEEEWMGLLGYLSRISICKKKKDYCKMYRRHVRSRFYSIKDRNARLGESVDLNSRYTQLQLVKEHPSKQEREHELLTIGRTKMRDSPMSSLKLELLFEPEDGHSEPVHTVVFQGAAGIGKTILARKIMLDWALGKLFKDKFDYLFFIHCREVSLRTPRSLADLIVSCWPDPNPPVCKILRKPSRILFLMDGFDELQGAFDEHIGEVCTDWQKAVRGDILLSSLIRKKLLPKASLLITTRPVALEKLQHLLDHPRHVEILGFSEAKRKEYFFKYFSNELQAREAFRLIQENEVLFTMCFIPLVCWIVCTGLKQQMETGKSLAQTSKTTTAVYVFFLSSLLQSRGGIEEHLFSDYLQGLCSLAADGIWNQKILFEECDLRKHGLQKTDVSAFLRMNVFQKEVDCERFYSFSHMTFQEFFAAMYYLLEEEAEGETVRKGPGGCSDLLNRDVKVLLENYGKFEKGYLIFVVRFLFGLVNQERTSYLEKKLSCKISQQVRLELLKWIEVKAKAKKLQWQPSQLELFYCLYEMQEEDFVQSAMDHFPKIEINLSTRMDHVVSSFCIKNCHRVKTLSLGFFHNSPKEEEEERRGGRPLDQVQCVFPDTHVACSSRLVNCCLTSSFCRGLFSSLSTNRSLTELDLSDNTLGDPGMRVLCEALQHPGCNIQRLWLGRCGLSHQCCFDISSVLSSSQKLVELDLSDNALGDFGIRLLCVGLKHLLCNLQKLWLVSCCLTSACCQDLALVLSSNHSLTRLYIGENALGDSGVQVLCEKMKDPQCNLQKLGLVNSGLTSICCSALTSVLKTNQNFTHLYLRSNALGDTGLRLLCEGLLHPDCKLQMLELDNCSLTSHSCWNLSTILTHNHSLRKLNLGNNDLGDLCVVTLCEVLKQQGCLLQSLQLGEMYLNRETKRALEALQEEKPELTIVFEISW

[2] = biological target: T1, NACHT, LRR and PYD domains-containing protein 3 (Homo sapiens, UniProt Q96P20); test: Inhibition of NLRP3 inflammasome in human primary glial cells assessed as reduction in LPS-induced IL-1beta release at 1 to 10 uM; type: cell-based; conditions: dose microM 1-10
T1 sequence (Q96P20 whole entry, the tested form may be a part): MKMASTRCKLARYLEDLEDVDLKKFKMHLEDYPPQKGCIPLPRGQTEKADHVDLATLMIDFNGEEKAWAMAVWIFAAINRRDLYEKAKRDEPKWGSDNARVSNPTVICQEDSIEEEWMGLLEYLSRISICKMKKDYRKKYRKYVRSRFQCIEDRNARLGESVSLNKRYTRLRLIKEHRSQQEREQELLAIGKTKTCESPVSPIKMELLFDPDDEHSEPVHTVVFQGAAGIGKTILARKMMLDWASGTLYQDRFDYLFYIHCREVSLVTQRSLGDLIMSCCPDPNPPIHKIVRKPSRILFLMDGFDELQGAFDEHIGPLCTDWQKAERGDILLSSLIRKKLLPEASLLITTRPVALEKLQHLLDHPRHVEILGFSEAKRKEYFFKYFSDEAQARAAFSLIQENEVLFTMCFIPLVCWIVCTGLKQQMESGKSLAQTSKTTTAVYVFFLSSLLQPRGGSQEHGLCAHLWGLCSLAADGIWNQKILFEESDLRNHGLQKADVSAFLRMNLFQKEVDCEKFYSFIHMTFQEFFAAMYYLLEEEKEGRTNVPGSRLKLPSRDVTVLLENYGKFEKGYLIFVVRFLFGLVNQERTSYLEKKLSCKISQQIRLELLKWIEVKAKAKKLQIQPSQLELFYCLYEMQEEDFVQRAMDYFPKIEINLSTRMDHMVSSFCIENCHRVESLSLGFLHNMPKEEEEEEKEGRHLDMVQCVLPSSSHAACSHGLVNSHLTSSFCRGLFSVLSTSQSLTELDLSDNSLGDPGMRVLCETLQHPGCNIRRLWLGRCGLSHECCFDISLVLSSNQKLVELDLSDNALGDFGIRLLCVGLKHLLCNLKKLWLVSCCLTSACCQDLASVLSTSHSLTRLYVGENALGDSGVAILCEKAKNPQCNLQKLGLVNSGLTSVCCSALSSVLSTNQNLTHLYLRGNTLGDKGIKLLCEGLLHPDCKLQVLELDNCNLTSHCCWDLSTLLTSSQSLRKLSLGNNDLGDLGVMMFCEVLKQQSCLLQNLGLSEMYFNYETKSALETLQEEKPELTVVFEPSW

[3] = Therapeutic index, ratio of IC50 for cytotoxicity against mouse J774.A1 cells to IC50 for antiinflammatory activity in mouse J774.A1 cells; type: toxicity, cell-based
[4] = biological target: NACHT, LRR and PYD domains-containing protein 3 (Mus musculus, UniProt Q8R4B8); test: Inhibition of NLRP3 inflammasome in mouse J774.A1 cells assessed as reduction in LPS-induced IL-1beta release; type: cell-based
NACHT, LRR and PYD domains-containing protein 3 (Mus musculus, UniProt Q8R4B8), sequence (Q8R4B8 whole entry, the tested form may be a part): as the sequence (Q8R4B8 whole entry, the tested form may be a part) above

[5] = biological target: T1, NACHT, LRR and PYD domains-containing protein 3; test: Inhibition of NLRP3 inflammasome in human primary glial cells assessed as reduction in LPS-induced IL-1beta release; type: cell-based
[6] = Cytotoxicity against human HEK-293T cells; type: cell-based; conditions: read-out: TC50 (the source's name)
[7] = Cytotoxicity against mouse J774.A1 cells; type: cell-based; conditions: read-out: TC50 (the source's name)
[8] = biological target: NACHT, LRR and PYD domains-containing protein 3 (Mus musculus) (UniProt Q8R4B8); test: Inhibition of NLRP3 inflammasome in mouse J774.A1 cells assessed as reduction in LPS-induced IL-1beta release at 10 uM in presence of PTL/MCL; type: cell-based
[9] = biological target: T1, NACHT, LRR and PYD domains-containing protein 3; test: Inhibition of NLRP3 inflammasome in human primary glial cells assessed as reduction in LPS-induced IL-1beta release at 10 uM in presence of PTL/MCL; type: cell-based; conditions: Primary neuron
[10] = biological target: NACHT, LRR and PYD domains-containing protein 3 (Mus musculus) (UniProt Q8R4B8); test: Inhibition of NLRP3 inflammasome in mouse J774.A1 cells assessed as reduction in LPS-induced IL-1beta release at 10 uM; type: cell-based
[11] = biological target: T1, NACHT, LRR and PYD domains-containing protein 3; test: Inhibition of NLRP3 inflammasome in human primary glial cells assessed as reduction in LPS-induced IL-1beta release at 10 uM; type: cell-based; conditions: Primary neuron
Mus musculus [12] = test: In vivo inhibition of NLRP3 in mouse assessed as reduction in LPS-induced IL-1beta release in peritoneal fluid at 30 mg/kg, po; type: functional, organism-based
Mus musculus [13] = test: In vivo inhibition of NLRP3 in mouse assessed as reduction in LPS-induced IL-1beta release in serum at 30 mg/kg, po; type: functional, organism-based
[14] = biological target: T1, NACHT, LRR and PYD domains-containing protein 3; test: Inhibition of NLRP3 inflammasome activation (unknown origin) assessed as reduction in caspase 1 p20 level by Western blot analysis; type: tissue-based; conditions: Primary neuron, dose microM 0.2-5
[15] = biological target: T1, NACHT, LRR and PYD domains-containing protein 3; test: Inhibition of NLRP3 inflammasome activation (unknown origin) assessed as reduction in ASC level at 0.2 to 5 uM by Western blot analysis; conditions: dose microM 0.2-5
[16] = biological target: T1, NACHT, LRR and PYD domains-containing protein 3; test: Inhibition of NLRP3 inflammasome activation (unknown origin) assessed as reduction in IL-1beta by Western blot analysis; conditions: dose microM 0.2-5
[17] = biological target: T1, NACHT, LRR and PYD domains-containing protein 3; test: Inhibition of NLRP3 inflammasome activation (unknown origin) assessed as reduction in procaspase1 at 0.2 to 5 uM by Western blot analysis; conditions: dose microM 0.2-5
[18] = biological target: T1, NACHT, LRR and PYD domains-containing protein 3; test: Inhibition of NLRP3 inflammasome activation (unknown origin) assessed as reduction in proIL-1beta at 0.2 to 5 uM by Western blot analysis; conditions: dose microM 0.2-5

Row | inhibition [1] | inhibition [2] | IC50 [4] | IC50 [5] | Structure (SMILES) | selectivity ratio [3] | CC50 [6] | CC50 [7] | other results
1 |  |  | 0.5 µM | 1.7 µM | CC1=C2CC[C@@](C)(O)[C@@H]2[C@H]2OC(=O)[C@@H](CN(C)CCOc3no[n+]([O-])c3S(=O)(=O)c3ccccc3)[C@@H]2CC1 | 119 | 56.5 µM | 59.5 µM | 
2 |  |  | 0.93 µM | 1.9 µM | O=S(=O)(c1ccccc1)c1no[n+]([O-])c1S(=O)(=O)c1ccccc1 | 12.2 | 22.4 µM | 11.4 µM | 
3 | Dose-dependent effect | Dose-dependent effect | 1.4 µM | 1.8 µM | C=C1C(=O)O[C@@H]2[C@H]3O[C@@]3(C)CC/C=C(\C)CC[C@@H]12 | 10.2 | 29.9 µM | 14.3 µM | inhibition (Mus musculus [12]): Active; inhibition (Mus musculus [13]): Active
4 |  |  | 0.49 µM | 2.3 µM | CC1=C2CC[C@@](C)(O)[C@@H]2[C@H]2OC(=O)[C@@H](CN(C)CCCOc3no[n+]([O-])c3S(=O)(=O)c3ccccc3)[C@@H]2CC1 | 140 | 106 µM | 68.5 µM | 
5 |  |  | 0.4 µM | 2.2 µM | C/C1=C\CC[C@]2(C)O[C@@H]2[C@H]2OC(=O)[C@@H](CN(C)CCCOc3no[n+]([O-])c3S(=O)(=O)c3ccccc3)[C@@H]2CC1 | 166 | 166 µM | 66.6 µM | 
6 |  |  | 0.3 µM | 1 µM | C/C1=C\CC[C@]2(C)O[C@@H]2[C@H]2OC(=O)[C@@H](CN(C)CCOc3no[n+]([O-])c3S(=O)(=O)c3ccccc3)[C@@H]2CC1 | 80.3 | 69.8 µM | 24.1 µM | inhibition (Mus musculus [12]): Active; inhibition [14]: Dose-dependent effect; inhibition [15]: inactive; inhibition (Mus musculus [13]): Active; inhibition [16]: Dose-dependent effect; inhibition [17]: inactive; inhibition [18]: inactive

The next lines start with the compound.

Row | Structure (SMILES) | inhibition [1] | inhibition [2] | IC50 [4] | IC50 [5] | selectivity ratio [3] | CC50 [6] | CC50 [7] | other results
7 | C=C1C(=O)O[C@H]2[C@H]1CCC(C)=C1CC[C@@](C)(O)[C@@H]12 [MICHELIOLIDE] | Dose-dependent effect | Dose-dependent effect | 2.3 µM | 5.9 µM | 9.5 | 51.7 µM | 21.9 µM | 
8 | C=C1CCC[C@]2(C)CC[C@H]3C(=C)C(=O)O[C@@H]3[C@@H]12 | Dose-dependent effect | Dose-dependent effect |  |  |  |  |  | 
9 | CC1=C2CC[C@@](C)(O)[C@@H]2[C@H]2OC(=O)[C@@H](CN(C)CC(=O)Nc3nc4ccc(OC(F)(F)F)cc4s3)[C@@H]2CC1 |  |  |  |  |  |  |  | inhibition [8]: Active; inhibition [9]: Active
10 | Nc1nc2ccc(OC(F)(F)F)cc2s1 |  |  |  |  |  |  |  | inhibition [8]: Active; inhibition [10]: inactive; inhibition [9]: Active; inhibition [11]: inactive
11 | C/C1=C\CC[C@]2(C)O[C@@H]2[C@H]2OC(=O)[C@@H](CN(C)CC(=O)Nc3nc4ccc(OC(F)(F)F)cc4s3)[C@@H]2CC1 |  |  |  |  |  |  |  | inhibition [8]: Active; inhibition [9]: Active
12 | C=C1C(=O)O[C@@H]2[C@H]3C(C)=CCC[C@]3(C)CC[C@@H]12 | Dose-dependent effect | Dose-dependent effect |  |  |  |  |  | 
13 | C=C1C(=O)O[C@@H]2/C=C(\C)CC/C=C(\C)CC[C@@H]12 | Dose-dependent effect |  |  |  |  |  |  | 
